Laboratory results taken from article PMC5695697 (Cell chemical biology, 2017).

Assays:
GRN mRNA = GRN mRNA expression by qPCR in human iPSC-derived NPCs and neurons; format: cell-based
H3K9 acetylation = H3K9 acetylation Western blot in human NPCs and neurons; format: cell-based; settings: ACY-1215 5 μM, tubastatin A 10 μM, CI-994 10 μM, Cpd-60 5 μM (Figure S1)
[1] = system: H3K27 acetylation on GRN promoter; assay: H3K27 acetylation ChIP-qPCR on GRN promoter/enhancer region in NPCs; format: cell-based, human; settings: 24 hours, panobinostat 0.5 μM, CI-994 10 μM; for H3K27 acetylation in ChIP Region 3: to varying levels
HDAC = settings: ref Schroeder et al., 2013; Chou et al., 2008; cited from earlier work
MSR293 cells = assay: GRN mRNA / PGRN expression in MSR293 cells; format: cell-based, human; settings: MSR293 cells (HEK293 derivative), Figure S3
[2] = system: recombinant human Class I HDACs (HDAC1, HDAC2, HDAC3); assay: In vitro HDAC enzymatic assay with varied pre-incubation time; format: biochemical; settings: pre-incubation 0–3 hours, Figure S5
PGRN protein = format: cell-based, human
FXN mRNA = assay: FXN; format: cell-based, human; settings: 18-day neurons, 24 h; SAHA 10 μM, CI-994 10 μM, Cpd-60 5 μM
[3] = 2010, cited from earlier work
[4] = human NPCs, CI-994 for up to 72 hours
[5] = human neurons, CI-994 10 μM, 24 h

Structure (SMILES): O=C(NCC1(c2nc(-c3ccccc3)cs2)CCOCC1)c1cccc(-c2noc(C(F)(F)F)n2)c1 [TMP269]
- increasing GRN mRNA in NPCs (GRN mRNA; NPCs only (Figure S2)): not effective

Structure (SMILES): CN1CCc2c(c3ccccc3n2Cc2ccc(C(=O)NO)cc2)C1 [Tubastatin A]
- H3K9 acetylation (H3K9 acetylation): robust effect

Structure (SMILES): Cc1[nH]c2ccccc2c1CCNCc1ccc(/C=C/C(=O)NO)cc1 [panobinostat]
- H3K27 acetylation in ChIP Region 1 on the GRN promoter [1]: significantly increased
- H3K27 acetylation in ChIP Region 2 [1]: Neither compound treatment increased
- H3K27 acetylation in ChIP Region 3 [1]: increased

Structure (SMILES): CC(=O)Nc1ccc(C(=O)Nc2ccccc2N)cc1 [CI-994]
- H3K9 acetylation (H3K9 acetylation): significantly increase
- binding kinetics, mechanism of action (HDAC): slow-on/slow-off
- upregulating GRN mRNA or PGRN (MSR293 cells): ineffective
- H3K27 acetylation in ChIP Region 2 [1]: Neither compound treatment increased
- H3K27 acetylation in ChIP Region 3 [1]: increased
- GRN mRNA levels, extended treatment (GRN mRNA; [4]): did not significnatly enhance
- GRN mRNA (GRN mRNA; [5]): statistically significant decrease
- change of potency with prolonged incubation (in vitro kinetic profile) [2]: slow-binder
- intracellular PGRN (PGRN protein; NPCs, CI-994 10 μM, 24 h): decrease
- secreted PGRN (PGRN protein; NPCs, CI-994 10 μM, 24 h): decrease
- PGRN secreted protein expression, longer treatment times (PGRN protein; NPCs, CI-994 10 μM, longer treatment times, vs vehicle): decreased
- PGRN protein levels, extended treatment (PGRN protein; [4]): did not significnatly enhance
- intracellular PGRN protein (PGRN protein; [5]): statistically significant decrease
- FXN (frataxin) mRNA levels (FXN mRNA): significantly increased

Structure (SMILES): O=C(CCCCCCC(=O)Nc1ccccc1)NO [SAHA]
- upregulating GRN mRNA or PGRN (MSR293 cells): effective
- FXN (frataxin) mRNA levels (FXN mRNA): does not

Structure (SMILES): CCC(=O)CCCCC[C@@H]1NC(=O)[C@H]2CCCCN2C(=O)[C@H]([C@@H](C)CC)NC(=O)[C@H](Cc2cn(OC)c3ccccc23)NC1=O [apicidin]
- change of potency with prolonged incubation (in vitro kinetic profile) [2]: did not increase

Structure (SMILES): CCCC(CCC)C(=O)O [valproate, valproic acid]
- serum concentration ([3]; chronic treatment, ref Kalu): 300 to 700 µM
- Cmax ([3]; read-out: brain concentration Cmax, estimated, ref Goldenberg): 400 µM
- change of potency with prolonged incubation (in vitro kinetic profile) [2]: did not increase
- increase of PGRN protein expression compared to vehicle (PGRN protein; cultured NPCs and neurons, valproate at doses lower than 1 mM (Figure S8)): 1.3–1.5 ×

Structure (SMILES): O=C(CCCCCCNC(=O)c1cnc(N(c2ccccc2)c2ccccc2)nc1)NO [ACY-1215]
- H3K9 acetylation (H3K9 acetylation): as strong of an induction
